Laboratory results taken from article PMC12040169 (PLOS Biology, 2025).

Assay: in vitro
Settings: human, hela cells, % viability

Row | Compound | viability at 28.5 h, 10 µM
1 | Nc1ncc(-c2ccc(Cl)cc2)nc1-c1ccc(CCC(=O)O)cc1 [CBK064063] | 92.9%
2 | Nc1ncc(-c2ccc3c(c2)OCO3)nc1N1CCC(C(=O)O)CC1 [CBK064074] | 101%
3 | CC(=O)c1ccc(-c2nc(-c3occc3C=O)cnc2N)cc1 [CBK064081] | 89.9%
4 | CCCC/C=C/c1cnc(N)c(Nc2ccc(OC)cc2C)n1 [CBK064090] | 101%
5 | Nc1ncc(-c2cccc(OC(F)(F)F)c2)nc1-c1ccc(C(=O)N2CCOCC2)cc1 [CBK064091] | 96.8%
6 | Nc1ncc(-c2ccco2)nc1-c1ccc(C=O)cc1 [CBK064095] | 102%
7 | COc1ccc(-c2cnc(N)c(-c3ccc(C=O)cc3)n2)cn1 [CBK064096] | 90.8%
8 | COc1ccc(Nc2nc(-c3cc(C(C)C)ccc3OC)cnc2N)c(C)c1 [CBK064098] | 87%
9 | COCOc1ccc(-c2nc(-c3ccco3)cnc2N)cc1 [CBK064108] | 82.9%
10 | COc1ncc(-c2cnc(N)c(-c3ccc(C=O)cc3)n2)c(OC)n1 [CBK064110] | 94.1%
11 | CN1CCN(c2ccc(-c3cnc(N)c(NC4CCOCC4)n3)cc2)CC1 [CBK064114] | 88.8%
12 | Nc1ncc(-c2cncnc2)nc1-c1ccc(CCC(=O)O)cc1 [CBK064120] | 102%
13 | Nc1ncc(-c2ccco2)nc1-c1ccc(C(=O)NCCO)cc1 [CBK064124] | 91.1%
14 | CCCC/C=C/c1cnc(N)c(-c2ccc(CCC(=O)O)cc2)n1 [CBK064127] | 95.5%
15 | Nc1ncc(-c2cc3ccccc3s2)nc1-c1ccc(CCC(=O)O)cc1 [CBK064134] | 98.1%
16 | CCCC/C=C/c1cnc(N)c(-c2ccc(C(=O)NCCO)cc2)n1 [CBK064141] | 106%
17 | Nc1ncc(-c2cccc(O)c2)nc1-c1ccc(C(=O)NCCO)cc1 [CBK064143] | 114%
18 | COc1ccc(-c2cnc(N)c(-c3ccc(C(=O)NCCO)cc3)n2)cn1 [CBK064147] | 95.6%
19 | COCCn1c(=O)[nH]c2ncc(-c3ccc4c(c3)OCO4)nc21 [CBK064164] | 95.8%
20 | CC(C)Cn1c(=O)[nH]c2ncc(-c3cncnc3)nc21 [CBK064177] | 90.1%
21 | CCCC/C=C/c1cnc2[nH]c(=O)n([C@H](C)c3ccccc3)c2n1 [CBK064182] | 99.7%

Row | Compound | viability at 28.5 h, 10 µM
22 | CN(C)CCNC(=O)c1cccc(-c2cnc3[nH]c(=O)n(C4CCCCC4)c3n2)c1 [CBK064191] | 103%
23 | C[C@@H](c1ccccc1)n1c(=O)[nH]c2ncc(-c3cccc4cccnc34)nc21 [CBK064199] | 92%
24 | CCCC/C=C/c1cnc2[nH]c(=O)n(CC(C)C)c2n1 [CBK064225] | 96.4%
25 | COc1cncc(-c2cnc3[nH]c(=O)n(C4CCCCC4)c3n2)c1 [CBK064230] | 97.8%
26 | COc1ccc(-c2cnc3[nH]c(=O)n([C@H](C)c4ccccc4)c3n2)c(OC)c1OC [CBK064236] | 94.7%
27 | COc1ccc(-c2cnc3[nH]c(=O)n(CCCN4CCOCC4)c3n2)c(OC)c1OC [CBK064249] | 109%
28 | CCCC/C=C/c1cnc2[nH]c(=O)n(C3CCOCC3)c2n1 [CBK064253] | 98.1%
29 | COc1cc(-c2cnc3[nH]c(=O)n(C4CCOCC4)c3n2)cc(OC)c1OC [CBK064255] | 94.6%
30 | O=c1[nH]c2ncc(-c3cccc4ccccc34)nc2n1Cc1cccnc1 [CBK064274] | 102%
31 | O=c1[nH]c2ncc(-c3cccc4cccnc34)nc2n1Cc1cccnc1 [CBK064305] | 58.9%
32 | O=c1[nH]c2ncc(-c3cccc(-c4ccccc4)c3)nc2n1CCCN1CCOCC1 [CBK064311] | 92.1%
33 | O=c1[nH]c2ncc(-c3ccco3)nc2n1CCCN1CCOCC1 [CBK064319] | 90.6%
34 | COc1ccc(C(C)C)cc1-c1cnc2[nH]c(=O)n(CCc3cccnc3)c2n1 [CBK064343] | 90.4%
35 | O=c1[nH]c2ncc(-c3ccco3)nc2n1Cc1ccccn1 [CBK064349] | 101%
36 | C[C@@H](c1ccccc1)n1c(=O)[nH]c2ncc(-c3ccc(N(C)C)cc3)nc21 [CBK064352] | 103%
37 | CC(=O)c1ccc(-c2cnc3[nH]c(=O)n([C@@H](C)c4ccccc4)c3n2)s1 [CBK064360] | 98.3%
38 | CCCC/C=C/c1cnc2[nH]c(=O)n(Cc3ccccn3)c2n1 [CBK064365] | 102%
39 | COCCCn1c(=O)[nH]c2ncc(-c3ccc(C(=O)N4CCOCC4)cc3)nc21 [CBK064366] | 97.8%
40 | C[C@@H](c1ccccc1)n1c(=O)[nH]c2ncc(-c3cccc(C(=O)NCCN(C)C)c3)nc21 [CBK064376] | 103%
41 | CC(=O)c1ccc(-c2cnc3[nH]c(=O)n(C4CCCCC4)c3n2)s1 [CBK064382] | 103%
42 | CS(=O)(=O)c1ccc(-c2cnc3[nH]c(=O)n(Cc4cccs4)c3n2)cc1 [CBK064383] | 93.1%

Row | Compound | viability at 28.5 h, 10 µM
43 | O=c1[nH]c2ncc(-c3ccco3)nc2n1Cc1ccc(F)c(Cl)c1 [CBK064393] | 108%
44 | C[C@@H](c1ccccc1)n1c(=O)[nH]c2ncc(-c3cccc4ncccc34)nc21 [CBK064394] | 116%
45 | CC(C)Cn1c(=O)[nH]c2ncc(-c3cccc4cccnc34)nc21 [CBK064400] | 60.5%
46 | COc1ncc(-c2cnc3[nH]c(=O)n([C@H](C)c4ccccc4)c3n2)cn1 [CBK064401] | 85.3%
47 | O=c1[nH]c2ncc(-c3ccc(OC(F)(F)F)cc3)nc2n1Cc1ccc(Cl)cc1 [CBK064409] | 103%
48 | O=C(c1ccc(-c2cnc3[nH]c(=O)n(Cc4ccccn4)c3n2)cc1)N1CCOCC1 [CBK064413] | 110%
49 | COCCCn1c(=O)[nH]c2ncc(-c3ccc(O)cc3)nc21 [CBK064425] | 93.6%
50 | O=c1[nH]c2ncc(-c3ccco3)nc2n1Cc1cccs1 [CBK064438] | 103%
51 | COCCCn1c(=O)[nH]c2ncc(-c3ccco3)nc21 [CBK064449] | 99.2%
52 | COc1cc(-c2cnc3[nH]c(=O)n([C@@H](CO)C(C)C)c3n2)cc(OC)c1OC [CBK064471] | 105%
53 | CC(C)[C@H](CO)n1c(=O)[nH]c2ncc(-c3ccco3)nc21 [CBK064479] | 86.7%
54 | O=c1[nH]c2ncc(-c3ccncc3)nc2n1CC1CC1 [CBK064539] | 90%
55 | CCCC/C=C/c1cnc2[nH]c(=O)n(CCCOC)c2n1 [CBK064540] | 109%
56 | C[C@@H](c1ccccc1)n1c(=O)[nH]c2ncc(-c3ccc(C(=O)NC4CCCC4)cc3)nc21 [CBK064542] | 91.2%
57 | CC(C)Cn1c(=O)[nH]c2ncc(-c3ccc(C(=O)NC4CCCC4)cc3)nc21 [CBK064551] | 108%
58 | CN(C)C(=O)c1cccc(-c2cnc3[nH]c(=O)n(Cc4ccc(Cl)cc4)c3n2)c1 [CBK064553] | 97.5%
59 | C[C@H](c1ccccc1)n1c(=O)[nH]c2ncc(-c3ccc(C(=O)N4CCN(C)CC4)cc3)nc21 [CBK064559] | 101%
60 | O=c1[nH]c2ncc(-c3cccnc3)nc2n1Cc1ccc(Cl)cc1 [CBK064561] | 98.3%
61 | O=c1[nH]c2ncc(-c3ccsc3)nc2n1C1CCCCC1 [CBK064574] | 92.6%
